The values that follow come from patent publication US7524861B2, “Process for the preparation of a hydrate of an anthranilic acid derivative” (priority 2002, dated 2009).

Holding throughout (type): cell-based
One test relates to 2780AD. Description: Potentiation of toxicity of various cytotoxic agents, potentiation index. The settings on record: Taxol, compound 10 nM. The method, then: (§1) (b) Cells were cultured for four days with a titration of doxorubicin (0.263 nM-[…]) in the presence of a fixed concentration of each compound. Proliferation was quantified as described by Skehen et al, loc cit. The IC50 (concentration required to reduce proliferation to 50% of the untreated controls) for doxorubicin alone and with each compound were derived and used to calculate the potentiation index (PI):
(§2) The potentiation indices of a selection of compounds using a variety of cell lines and a variety of cytotoxics other than doxorubicin were measured following the protocol described above for doxorubicin, and the results are shown in Table D.

The subject of a further test is H69/LX4. The test is described as above. Conditions: for Potentiaton Index at RMA Concentration 10 nM: compound 10 nM; for Potentiaton Index at RMA Concentration 30 nM: compound 30 nM. As to the method: as §1, §2
The subject of the next test is AR 1.0 cells. Description: Potentiation of doxorubicin toxicity: proliferation assay, compound titrated against fixed doxorubicin (sulphorhodamine B). Conditions: Mus musculus, 96 h; with fixed doxorubicin (0.34 mm); four day incubation; read-out: Toxicity with Cytotoxic Agent (IC50 mM). The method, then:
The EMT6 mouse mammary carcinoma cell line and the MDR resistant subline AR 1.0 were cultured in RPMI 1640 medium containing 10% foetal calf serum and 2 mM glutamine at 37° C. in 5% CO2. Cells were passaged between 1 in 200 and 1 in 2000 in the case of the parental cell line and between 1 in 20 and 1 in 200 in the case of the MDR resistant subline, after trypsinisation (0.25% trypsin, 0.2 gl^−1, EDTA).
(a) Selected compounds of formula (I) were examined for their ability to potentiate the toxicity of doxorubicin in AR 1.0 cells. In initial proliferation assays compounds were titrated against a fixed concentration of doxorubicin ([…]) which alone is non-toxic to AR 1.0 cells. After a four day incubation with doxorubicin proliferation was measured using the colorimetric sulphorhodamine B assay (Skehan et al; J Natl. Cancer Inst. 82 pp 1107-1112 (1990)).

As for `COc1cc2c(cc1OC)CN(CCc1ccc(NC(=O)c3sccc3NC(=O)c3cnc4ccccc4c3)cc1)CC2` [Compound 3, Quinoline-3-carboxylic acid (2-{4-[2-(6,7-dimethoxy-3,4-dihydro-1H-isoquinolin-2-yl)-ethyl]-phenylcarbamoyl}-thiophen-3-yl)-amide], in the test on 2780AD, the “Potentiaton Index at RMA Concentration 10 nM” value came to 18. For the same compound, in the test with H69/LX4 (Vincristine), the “Potentiaton Index at RMA Concentration 10 nM” value is 2 and the “Potentiaton Index at RMA Concentration 30 nM” value is recorded as 79. `COc1cc2c(cc1OC)CN(CCc1ccc(NC(=O)c3c(C)csc3NC(=O)c3cnc4ccccc4c3)cc1)CC2` [Compound 6, Quinoline-3-carboxylic acid (3-{4-[2-(6,7-dimethoxy-3,4-dihydro-1H-isoquinolin-2-yl)-ethyl]-phenylcarbamoyl}-4-methyl-thiophen-2-yl)-amide]: in the test on H69/LX4 (Taxol), the “Potentiaton Index at RMA Concentration 10 nM” value is 1 and the “Potentiaton Index at RMA Concentration 30 nM” value amounted to 3. For the same compound, the “Potentiaton Index at RMA Concentration 50 nM” value with H69/LX4 (Taxol, compound 50 nM) is reported as 9. With `COc1ccc(CN(C)CCc2ccc(NC(=O)c3ccccc3NC(=O)c3cnc4ccccc4c3)cc2)cc1OC` [Compound 7, Quinoline-3-carboxylic acid [2-(4-{2-[(3,4-dimethoxy-benzyl)-methyl-amino]-ethyl}-phenylcarbamoyl)-phenyl]-amide], the “Potentiaton Index at RMA Concentration 10 nM” value in the test with H69/LX4 (Taxol) worked out at 2.2. Consider `COc1cc2c(cc1OC)CN(CCNC(=O)c1ccccc1NC(=O)c1nccc3ccccc13)CC2` [Compound 27, Isoquinoline-1-carboxylic acid {2-[2-(6,7-dimethoxy-3,4-dihydro-1H-isoquinolin-2-yl)-ethylcarbamoyl]-phenyl}-amide], for which the IC50 with AR 1.0 cells worked out at 1000 nM. The same measure, in the same setting: to `COc1cc2c(cc1OC)CN(CCNC(=O)c1ccccc1NC(=O)c1ccc3ccccc3n1)CC2` [Compound 28, Quinoline-2-carboxylic acid {2-[2-(6,7-dimethoxy-3,4-dihydro-1H-isoquinolin-2-yl)-ethylcarbamoyl]-phenyl}-amide] belongs 550 nM; to `COc1cc2c(cc1OC)CN(CCNC(=O)c1ccccc1NC(=O)c1cc3ccccc3cn1)CC2` [Compound 29, Isoquinoline-3-carboxylic acid {2-[2-(6,7-dimethoxy-3,4-dihydro-1H-isoquinolin-2-yl)-ethylcarbamoyl]-phenyl}-amide], 300 nM; to `COc1cc2c(cc1OC)CN(CCc1ccc(NC(=O)c3cc(F)ccc3NC(=O)c3cnc4ccccc4c3)cc1)CC2` [Compound 33, Quinoline-3-carboxylic acid (2-{4-[2-(6,7-dimethoxy-3,4-dihydro-1H-isoquinolin-2-yl)-ethyl]-phenylcarbamoyl}-4-fluoro-phenyl)-amide], 5 nM. The same measure, in the same setting: to `COc1cc2c(cc1OC)CN(CCc1ccc(NC(=O)c3cc(OC)c(OC)cc3NC(=O)c3cnc4ccccc4c3)cc1)CC2` [Compound 34, Quinoline-3-carboxylic acid (2-{4-[2-(6,7-dimethoxy-3,4-dihydro-1H-isoquinolin-2-yl)-ethyl]-phenylcarbamoyl}-4,5-dimethoxy-phenyl)-amide] belongs 1.8 nM.

With `COc1cc2c(cc1OC)CN(CCc1ccc(NC(=O)c3cc4c(cc3NC(=O)c3cnc5ccccc5c3)OCO4)cc1)CC2` [Compound 35, Quinoline-3-carboxylic acid (6-{4-[2-(6,7-dimethoxy-3,4-dihydro-1H-isoquinolin-2-yl)-ethyl]-phenylcarbamoyl}-benzo[1,3]dioxol-5-yl)-amide], the IC50 in the test with AR 1.0 cells was determined as 1.4 nM.

With `COc1cc2c(cc1OC)CN(CCc1ccc(NC(=O)c3ccc([N+](=O)[O-])cc3NC(=O)c3cnc4ccccc4c3)cc1)CC2` [Compound 36, Quinoline-3-carboxylic acid (2-{4-[2-(6,7-dimethoxy-3,4-dihydro-1H-isoquinolin-2-yl)-ethyl]-phenylcarbamoyl}-5-nitro-phenyl)-amide], the IC50 in the test with AR 1.0 cells was found to be 3.8 nM. Still for that read-out and setting: the result for `COc1cc2c(cc1OC)CN(CCc1ccc(NC(=O)c3cc(C)ccc3NC(=O)c3cnc4ccccc4c3)cc1)CC2` [Compound 37, Quinoline-3-carboxylic acid (2-{4-[2-(6,7-dimethoxy-3,4-dihydro-1H-isoquinolin-2-yl)-ethyl]-phenylcarbamoyl}-4-methyl-phenyl)-amide] reads 15 nM; that for `COc1cc2c(cc1OC)CN(CCc1ccc(NC(=O)c3ccc(C)cc3NC(=O)c3cnc4ccccc4c3)cc1)CC2` [Compound 38, Quinoline-3-carboxylic acid (2-{4-[2-(6,7-dimethoxy-3,4-dihydro-1H-isoquinolin-2-yl)-ethyl]-phenylcarbamoyl}-5-methyl-phenyl)-amide], 5 nM. Same read-out and setting: the result for `COc1cc2c(cc1OC)CN(CCc1ccc(NC(=O)c3cc(Cl)ccc3NC(=O)c3cnc4ccccc4c3)cc1)CC2` [Compound 39, Quinoline-3-carboxylic acid (2-{4-[2-(6,7-dimethoxy-3,4-dihydro-1H-isoquinolin-2-yl)-ethyl]-phenylcarbamoyl}-4-chloro-phenyl)-amide] reads 5 nM. Regarding `COc1cc2c(cc1OC)CN(CCc1ccc(NC(=O)c3ccc(Cl)cc3NC(=O)c3cnc4ccccc4c3)cc1)CC2` [Compound 40, Quinoline-3-carboxylic acid (2-{4-[2-(6,7-dimethoxy-3,4-dihydro-1H-isoquinolin-2-yl)-ethyl]-phenylcarbamoyl}-5-chloro-phenyl)-amide], the IC50 in the test on AR 1.0 cells worked out at 40 nM. Still for that read-out and setting: the result for `COc1cc2c(cc1OC)CN(CCc1ccc(NC(=O)c3ccc(N)cc3NC(=O)c3cnc4ccccc4c3)cc1)CC2` [Compound 41, Quinoline-3-carboxylic acid (2-{4-[2-(6,7-dimethoxy-3,4-dihydro-1H-isoquinolin-2-yl)-ethyl]-phenylcarbamoyl}-5-amino-phenyl)-amide] reads 4400 nM; that for `COc1cc2c(cc1OC)CN(CCc1ccc(NC(=O)c3ccccc3NC(=O)c3ccc4ccccc4n3)cc1)CC2` [Compound 42, Quinoline-2-carboxylic acid (2-{4-[2-(6,7-dimethoxy-3,4-dihydro-1H-isoquinolin-2-yl)-ethyl]-phenylcarbamoyl}-phenyl)-amide], 70 nM. The same measure, in the same setting: the result for `COc1cc2c(cc1OC)CN(CCc1ccc(NC(=O)c3ccccc3NC(=O)c3cnc4c(c3)CCCC4)cc1)CC2` [Compound 43, 5,6,7,8-Tetrahydroquinoline-3-carboxylic acid (2-{4-[2-(6,7-dimethoxy-3,4-dihydro-1H-isoquinolin-2-yl)-ethyl]-phenylcarbamoyl}-phenyl)-amide] reads 50 nM; that for `O=C(Nc1ccccc1C(=O)Nc1ccc(CCN2CCc3ccccc3C2)cc1)c1cnc2ccccc2c1` [Compound 44, Quinoline-3-carboxylic acid (2-{4-[2-(3,4-dihydro-1H-isoquinolin-2-yl)-ethyl]-phenylcarbamoyl}-phenyl)-amide], 0.35 nM; that for `COc1cc2c(cc1OC)CN(Cc1ccc(NC(=O)c3ccccc3NC(=O)c3cnc4ccccc4c3)cc1)CC2` [Compound 45, Quinoline-3-carboxylic acid {2-[4-(6,7-dimethoxy-3,4-dihydro-1H-isoquinolin-2-ylmethyl)-phenylcarbamoyl]-phenyl}-amide], 22 nM.

One may read the IC50 as the concentration that gives 50% inhibition.
